The assay has as its target T1, GLP-1R (Homo sapiens, UniProt P43220).
T1 construct: host or cells: CHO cells
In words: GLP-1R activation cAMP assay (Assay 1 or Assay 2). It counts as cell-based. To be noted: cAMP increase in CHO cells stably expressing GLP-1R; compounds run on one of the two cAMP assays. The method in brief:
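CHO cells stably expressing human GLP-1R were incubated 1 h in HBSS/20 mM HEPES/0.1% BSA, then exposed to 10-point agonist dilutions for 30 min at 37 °C. cAMP increase was measured with an HTRF Gs dynamic kit; EC50 from sigmoidal fit of response versus log concentration.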
T1 sequence (P43220 24-463): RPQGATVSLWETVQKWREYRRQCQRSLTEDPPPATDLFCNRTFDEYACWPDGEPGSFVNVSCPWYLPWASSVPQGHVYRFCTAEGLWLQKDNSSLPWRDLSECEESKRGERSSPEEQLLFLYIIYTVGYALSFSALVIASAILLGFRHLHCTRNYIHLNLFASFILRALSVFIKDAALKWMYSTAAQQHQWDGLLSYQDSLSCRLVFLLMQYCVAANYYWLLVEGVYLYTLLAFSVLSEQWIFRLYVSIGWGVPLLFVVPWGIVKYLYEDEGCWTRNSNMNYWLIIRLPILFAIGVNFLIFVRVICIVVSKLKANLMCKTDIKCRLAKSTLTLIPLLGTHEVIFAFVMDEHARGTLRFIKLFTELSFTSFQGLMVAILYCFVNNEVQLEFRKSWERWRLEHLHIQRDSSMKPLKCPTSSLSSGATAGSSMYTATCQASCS
As a reminder, the EC50 is the concentration giving half of the maximal effect. As to `Cn1nc(COc2cccc(-c3cc(F)c(Cc4nc5ccc(C(=O)O)cc5n4C[C@@H]4CCO4)cc3F)n2)cc1C1CC1` [Example 39, (S)-2-(4-(6-((5-cyclopropyl-1-methyl-1H-pyrazol-3-yl)methoxy)pyridin-2-yl)-2,5-difluorobenzyl)-1-(oxetan-2-ylmethyl)-1H-benzo[d]imidazole-6-carboxylic acid], the response was half-maximal at 860 pM (EC50).
The value for `CC(F)(F)c1cnc(COc2cccc(-c3cc(F)c(Cc4nc5c(F)cc(C(=O)O)cc5n4C[C@@H]4CCO4)cc3F)n2)s1` [Example 318, (S)-2-(4-(6-((5-(1,1-difluoroethyl)thiazol-2-yl)methoxy)pyridin-2-yl)-2,5-difluorobenzyl)-4-fluoro-1-(oxetan-2-ylmethyl)-1H-benzo[d]imidazole-6-carboxylic acid] was 28 pM; that for `Cc1nc(COc2cccc(-c3cc(F)c(Cc4nc5ccc(C(=O)O)cc5n4C[C@H]4CCO4)cc3F)n2)sc1-c1cnn(C)c1` [Example 104, (R)-2-(2,5-difluoro-4-(6-((4-methyl-5-(1-methyl-1H-pyrazol-4-yl)thiazol-2-yl)methoxy)pyridin-2-yl)benzyl)-1-(oxetan-2-ylmethyl)-1H-benzo[d]imidazole-6-carboxylic acid] was 70 pM; that for `CNC(=O)c1cc(Cl)c(COc2cccc(-c3cc(F)c(Cc4nc5c(F)cc(C(=O)O)cc5n4CC4(CF)CC4)c(F)c3F)n2)cn1` [Example 398, 2-(4-(6-((4-chloro-6-(methylcarbamoyl)pyridin-3-yl)methoxy)pyridin-2-yl)-2,3,6-trifluorobenzyl)-4-fluoro-1-((1-(fluoromethyl)cyclopropyl)methyl)-1H-benzo[d]imidazole-6-carboxylic acid] was 17 pM.
`COc1nnc(COc2cccc(-c3cc(F)c(Cc4nc5c(F)cc(C(=O)O)cc5n4CC4(C(F)F)CC4)cc3F)n2)s1` [Example 275, 2-(2,5-difluoro-4-(6-((5-methoxy-1,3,4-thiadiazol-2-yl)methoxy)pyridin-2-yl)benzyl)-1-((1-(difluoromethyl)cyclopropyl)methyl)-4-fluoro-1H-benzo[d]imidazole-6-carboxylic acid] displayed an EC50 of 372 pM.
`O=C(O)c1ccc2nc(Cc3cc(F)c(-c4cccc(OCc5ncc(C#Cc6cnn(C7CC7)c6)s5)n4)cc3F)n(C[C@@H]3CCO3)c2c1` [Example 118, (S)-2-(4-(6-((5-((1-cyclopropyl-1H-pyrazol-4-yl)ethynyl)thiazol-2-yl)methoxy)pyridin-2-yl)-2,5-difluorobenzyl)-1-(oxetan-2-ylmethyl)-1H-benzo[d]imidazole-6-carboxylic acid] yielded an EC50 of 440 pM.
Compound `Cn1cc(-c2nnc(COc3cccc(-c4cc(F)c(Cc5nc6ccc(C(=O)O)cc6n5C[C@@H]5CCO5)cc4F)n3)s2)cn1` [Example 91, (S)-2-(2,5-difluoro-4-(6-((5-(1-methyl-1H-pyrazol-4-yl)-1,3,4-thiadiazol-2-yl)methoxy)pyridin-2-yl)benzyl)-1-(oxetan-2-ylmethyl)-1H-benzo[d]imidazole-6-carboxylic acid] yielded an EC50 of 120 pM.
With `O=C(O)c1cc(F)c2nc(Cc3cc(F)c(-c4cccc(OCc5ccc(Cl)s5)n4)cc3F)n(C[C@@H]3CCO3)c2c1` [Example 314, (S)-2-(4-(6-((5-chlorothiophen-2-yl)methoxy)pyridin-2-yl)-2,5-difluorobenzyl)-4-fluoro-1-(oxetan-2-ylmethyl)-1H-benzo[d]imidazole-6-carboxylic acid] the figure was 94 pM; with `NC(=O)c1ccc(COc2cccc(-c3cc(F)c(Cc4nc5ccc(C(=O)O)cc5n4C[C@@H]4CCO4)cc3F)n2)nc1` [Example 248, 2-[[4-[6-[(5-carbamoyl-2-pyridyl)methoxy]-2-pyridyl]-2,5-difluoro-phenyl]methyl]-3-[[(2S)-oxetan-2-yl]methyl]benzimidazole-5-carboxylic acid], 5610 pM.
The value for `Cn1cncc1C#Cc1cnc(COc2cccc(-c3cc(F)c(Cc4nc5ccc(C(=O)O)cc5n4C[C@@H]4CCO4)cc3F)n2)cn1` [Example 156, (S)-2-(2,5-difluoro-4-(6-((5-((1-methyl-1H-imidazol-5-yl)ethynyl)pyrazin-2-yl)methoxy)pyridin-2-yl)benzyl)-1-(oxetan-2-ylmethyl)-1H-benzo[d]imidazole-6-carboxylic acid] was 1190 pM.
In the case of `Cn1cc(C#Cc2ccc(COc3cccc(-c4cc(F)c(Cc5nc6ccc(C(=O)O)cc6n5C[C@@H]5CCO5)cc4F)n3)cc2)cn1` [Example 306, (S)-2-(2,5-difluoro-4-(6-((4-((1-methyl-1H-pyrazol-4-yl)ethynyl)benzyl)oxy)pyridin-2-yl)benzyl)-1-(oxetan-2-ylmethyl)-1H-benzo[d]imidazole-6-carboxylic acid], the EC50 was 621 pM.
The value for `N#CC1(NC(=O)c2cc(Cl)c(COc3cccc(-c4cc(F)c(Cc5nc6ccc(C(=O)O)cc6n5C[C@@H]5CCO5)cc4F)n3)cn2)CCC1` [Example 189, (S)-2-(4-(6-((4-chloro-6-((1-cyanocyclobutyl)carbamoyl)pyridin-3-yl)methoxy)pyridin-2-yl)-2,5-difluorobenzyl)-1-(oxetan-2-ylmethyl)-1H-benzo[d]imidazole-6-carboxylic acid] was 300 pM.
The value for `Cn1cc(C#Cc2ccc(COc3cccc(-c4cc(F)c(Cc5nc6c(F)cc(C(=O)O)cc6n5C[C@@H]5CCO5)cc4F)n3)c(F)c2)cn1` [Example 151, (S)-2-(2,5-difluoro-4-(6-((2-fluoro-4-((1-methyl-1H-pyrazol-4-yl)ethynyl)benzyl)oxy)pyridin-2-yl)benzyl)-4-fluoro-1-(oxetan-2-ylmethyl)-1H-benzo[d]imidazole-6-carboxylic acid] was 100 pM.
On to `Cn1cc(-c2cc(F)c(COc3cccc(-c4cc(F)c(Cc5nc6ccc(C(=O)O)cc6n5C[C@@H]5CCO5)cc4F)n3)s2)cn1` [Example 86, (S)-2-(2,5-difluoro-4-(6-((3-fluoro-5-(1-methyl-1H-pyrazol-4-yl)thiophen-2-yl)methoxy)pyridin-2-yl)benzyl)-1-(oxetan-2-ylmethyl)-1H-benzo[d]imidazole-6-carboxylic acid], for which the response was half-maximal at 140 pM (EC50).
For the compound “(S)-2-(4-(6-((5-cyano-3-fluorothiophen-2-yl)methoxy)-5-fluoropyridin-2-yl)-2,5-difluorobenzyl)-4-fluoro-1-(oxetan-2-ylmethyl)-1H-benzo[d]imidazole-6-carboxylic acid [Example 310]”, the EC50 worked out at 38 pM.
With `CC1(C#Cc2cnc(COc3cccc(-c4cc(F)c(Cc5nc6ccc(C(=O)O)cc6n5C[C@@H]5CCO5)cc4F)n3)s2)CC1` [Example 329, (S)-2-(2,5-difluoro-4-(6-((5-((1-methylcyclopropyl)ethynyl)thiazol-2-yl)methoxy)pyridin-2-yl)benzyl)-1-(oxetan-2-ylmethyl)-1H-benzo[d]imidazole-6-carboxylic acid] the figure was 226 pM; with `CNC(=O)c1cc(Cl)c(COc2cc(-c3cc(F)c(Cc4nc5c(F)cc(C(=O)O)cc5n4C[C@@H]4CCO4)cc3F)ccc2F)cn1` [Example 388, (S)-2-((3′-((4-chloro-6-(methylcarbamoyl)pyridin-3-yl)methoxy)-2,4′,5-trifluoro-[1,1′-biphenyl]-4-yl)methyl)-4-fluoro-1-(oxetan-2-ylmethyl)-1H-benzo[d]imidazole-6-carboxylic acid], 186 pM.
With `N#Cc1cccc(C#Cc2cnc(COc3cccc(-c4cc(F)c(Cc5nc6ccc(C(=O)O)cc6n5C[C@@H]5CCO5)cc4F)n3)s2)c1` [Example 316, (S)-2-(4-(6-((5-((3-cyanophenyl)ethynyl)thiazol-2-yl)methoxy)pyridin-2-yl)-2,5-difluorobenzyl)-1-(oxetan-2-ylmethyl)-1H-benzo[d]imidazole-6-carboxylic acid] the figure was 129 pM; with `O=C(O)c1ccc2nc(Cc3cc(F)c(-c4cccc(OCc5ccc(-c6cnc(C7CC7)o6)cc5F)n4)cc3F)n(C[C@@H]3CCO3)c2c1` [Example 160, (S)-2-(4-(6-((4-(2-cyclopropyloxazol-5-yl)-2-fluorobenzyl)oxy)pyridin-2-yl)-2,5-difluorobenzyl)-1-(oxetan-2-ylmethyl)-1H-benzo[d]imidazole-6-carboxylic acid], 200 pM; with `O=C(O)c1ccc2nc(Cc3cc(F)c(-c4cccc(OCc5nnc(C6CC6)o5)n4)cc3F)n(C[C@@H]3CCO3)c2c1` [Example 67, (S)-2-(4-(6-((5-cyclopropyl-1,3,4-oxadiazol-2-yl)methoxy)pyridin-2-yl)-2,5-difluorobenzyl)-1-(oxetan-2-ylmethyl)-1H-benzo[d]imidazole-6-carboxylic acid], 6520 pM.
The compound `CC1(C)COC[C@H]1n1c(Cc2cc(F)c(-c3cccc(OCc4ncc(Cl)s4)n3)cc2F)nc2ccc(C(=O)O)cc21` [Example 254, (S)-2-(4-(6-((5-chlorothiazol-2-yl)methoxy)pyridin-2-yl)-2,5-difluorobenzyl)-1-(4,4-dimethyltetrahydrofuran-3-yl)-1H-benzo[d]imidazole-6-carboxylic acid] had a concentration for a half-maximal effect (EC50) of 374 pM.
With `COCCn1c(Cc2cc(F)c(-c3cccc(OCc4ccc(-c5cnn(C6CCOCC6)c5)cc4F)n3)cc2F)nc2ccc(C(=O)O)cc21` [Example 226, 2-(2,5-difluoro-4-(6-((2-fluoro-4-(1-(tetrahydro-2H-pyran-4-yl)-1H-pyrazol-4-yl)benzyl)oxy)pyridin-2-yl)benzyl)-1-(2-methoxyethyl)-1H-benzo[d]imidazole-6-carboxylic acid] the figure was 8360 pM; with `N#CC1(NC(=O)c2ccc(COc3cccc(-c4cc(F)c(Cc5nc6ccc(C(=O)O)cc6n5C[C@@H]5CCO5)cc4F)n3)cn2)CC1` [Example 183, (S)-2-(4-(6-((6-((1-cyanocyclopropyl)carbamoyl)pyridin-3-yl)methoxy)pyridin-2-yl)-2,5-difluorobenzyl)-1-(oxetan-2-ylmethyl)-1H-benzo[d]imidazole-6-carboxylic acid], 260 pM.
